The values below come from US20250144087A1, “USE OF VE607 FOR THE TREATMENT OF SARS-COV-2 INFECTIONS AND RELATED DISEASES” (priority 2022, published 2025).

Each structure is given as a SMILES string.

For assay [1], the system named is pseudoviral particles expressing the Spike from SARS-CoV-2. Description: microbe, parasite or virus in culture. It is filed as cell-based. As to conditions: SARS-CoV-2 D614G pseudovirus.
Assay [2] has as its system authentic SARS-CoV-2 D614G. Type of assay: cell-based.
The subject of assay [3] is SARS-CoV-2 D614G Spike Q498V pseudoviral particles. It is filed as cell-based.
The test system of assay [4] is SARS-CoV-2 D614G Spike Y505T pseudoviral particles. It is filed as cell-based.
The target in assay [5] is interaction of sACE2 with the full SARS-CoV-2 Spike expressed at the cell surface (Severe acute respiratory syndrome coronavirus 2, UniProt P0DTC2, D614G). It is filed as binding.
Another assay deals with SARS-CoV-2 Spike (Severe acute respiratory syndrome coronavirus 2, UniProt P0DTC2, D614G). Type of assay: cell-based.
Assay [6] deals with pseudoviral particles bearing the Spike glycoproteins from the major VOCs (Alpha, Beta, Gamma, Delta and Omicron). Type of assay: cell-based, SARS-CoV-2.

With `O[C@H](COc1cccc(OC[C@@H](O)CN2CCCCC2)c1)CN1CCCCC1` [(S,S)-VE607, (2S,2'S)-3,3′-(1,3-phenylenebis(oxy))bis(1-(piperidin-1-yl)propan-2-ol)], in assay [1], the “capacity to neutralize SARS-CoV-2 pseudovirus particles compared with commercially available VE607” value was “same capacity as commercially available VE607”.
For orientation: IC50 means the midpoint of a concentration-inhibition curve. Low readings indicate greater potency, high ones weaker potency. Take `C=CCC(/C=C/OCC(O)CN(CC)CCC)OCC(O)CN(CC)CCC` (centres unmarked) [VE607]: the values for the IC50 in assay [2], in assay [3] and in assay [4] were 2.42 µM, 1.8 µM and more than 40 µM, respectively. Also, the “competition with sACE2 for interaction with Spike” value in assay [5] is recorded as “no competition”. Further, the “S1 shedding / trimer stability” value on SARS-CoV-2 Spike is “decrease shedding”. For the same molecule, the IC50 values result in assay [6] is reported as “low micromolar range”.
Consider `O[C@@H](COc1cccc(OC[C@H](O)CN2CCCCC2)c1)CN1CCCCC1` [(R,R)-VE607, (2R,2′R)-3,3′-(1,3-phenylenebis(oxy))bis(1-(piperidin-1-yl)propan-2-ol)], for which the “capacity to neutralize SARS-CoV-2 pseudovirus particles compared with commercially available VE607” value in assay [1] is given as “same capacity as commercially available VE607”.
